Assay results: patent US20170128468A1, “PHOSPHATIDYLGLYCEROL AS AN ANTI-INFLAMMATORY” (Agusta University Research Institute, Inc., priority 2015, published 2017)

Key:
Assay type in all cases: cell-based, mouse
[1] = test system: HSPB4-induced inflammatory mediator expression in RAW cell line; assay: qRT-PCR of inflammatory mediator mRNA in RAW 264.7 cells treated with recombinant HSPB4; settings: 100 μg/mL DOPG with 0.1 or 1 μg/mL HSPB4; 2 h; FIGS. 7A-7D
Protocol: (§1) Primary cultures of mouse epidermal keratinocytes were prepared from ICR strain CD-1 outbred neonatal mice 1-3 days of age as described in detail in (Bollag W B, et al., J Invest Derm 100 240-246 (1993); Griner R, et al., J Biol Chem, 274 4663-4670 (1999)). All procedures were approved by the Institutional Animal Care and Use Committee. RAW264.7 cells, a mouse macrophage-derived cell line, were kindly provided by Drs. Qing Zhong and Carlos Isales (Augusta University) and were cultured in DMEM containing 10% fetal bovine serum and 1% penicillin and streptomycin.
(§2) Keratinocytes were treated with or without TPA or a synthetic triacylated lipoprotein (Pam3CSK4), a TLR1/TLR2 agonist, or recombinant S100A9 (R&D Systems) or HSPB4 (MyBiosoruce) as indicated, for 2 hours in the presence and absence of different concentrations of soy PG or dioleoylphosphatidylglycerol (DOPG). Cells were harvested and RNA isolated using PerfectPure RNA tissue kits (5 PRIME, Inc, Gaithersburg, Md., USA) as per the manufacturer's protocol. Following verification of RNA integrity using a Nanodrop instrument (NanoDrop Technologies, Wilmington, Del.), RNA was reverse-transcribed to cDNA with iScript cDNA synthesis kits (Bio-Rad Laboratories, Hercules, Calif., USA) and analyzed by real-time PCR using Taqman primer/probe sets from Applied Biosystems (Life Technologies, Grand Island, N.Y.). […]

[2] = test system: TNFα protein secretion by RAW264.7 cells; assay: TNFα protein secretion by ELISA in RAW264.7 culture supernatants; settings: 2 h
Protocol: Cells were treated with recombinant S100A9 or recombinant HSPB4 as indicated and media collected. TNFα levels were determined in the supernatant using an ELISA kit (BD Biosciences) according to the manufacturer's instructions.
Mouse TNFα ELISA kits from BD Biosciences (San Jose, Calif.) were used. RAW264.7 cells were treated with or without recombinant S100A9 or HSPB4 in the presence and absence of DOPG for 2 hours. Cell culture supernatants were collected and stored at −80° C. and subjected to a single freeze-thaw cycle. The ELISA assay was performed according to the manufacturer's instructions with the optical density detected in each sample within 30 minutes, at a wavelength of 450 nm and corrected at 570 nm.

[3] = test system: Pam3CSK4-induced inflammatory mediator expression in macrophage cell line RAW 264.7; assay: qRT-PCR of inflammatory mediator mRNA in RAW 264.7 macrophage cell line treated with Pam3CSK4; settings: 2 h
Protocol: as §1
Keratinocytes were treated with or without TPA or a synthetic triacylated lipoprotein (Pam3CSK4), a TLR1/TLR2 agonist, or recombinant S100A9 (R&D Systems) or HSPB4 (MyBiosoruce) as indicated, for 2 hours in the presence and absence of different concentrations of soy PG or dioleoylphosphatidylglycerol (DOPG). Cells were harvested and RNA isolated using PerfectPure RNA tissue kits (5 PRIME, Inc, Gaithersburg, Md., USA) as per the manufacturer's protocol. Following verification of RNA integrity using a Nanodrop instrument (NanoDrop Technologies, Wilmington, Del.), RNA was reverse-transcribed to cDNA with iScript cDNA synthesis kits (Bio-Rad Laboratories, Hercules, Calif., USA) and analyzed by real-time PCR using Taqman primer/probe sets from Applied Biosystems (Life Technologies, Grand Island, N.Y.). Reactions were performed using Fast Reagent PCR Master Mix (Applied Biosystems) and a StepOnePlus Real-Time PCR System (Applied Biosystems) as instructed by the manufacturer. Expression of genes of interest was determined using the delta-delta Ct method normalized to the expression of GAPDH as the endogenous housekeeping gene and expressed relative to the appropriate control group.

[4] = test system: Pam3CSK4-induced inflammatory mediator expression in keratinocytes; assay: qRT-PCR of inflammatory mediator mRNA in keratinocytes treated with Pam3CSK4 (TLR1/2 agonist); settings: DOPG at either 50 or 100 μg/mL; Pam3CSK4 1 or 2.5 μg/mL; 2-hour incubation; FIGS. 1A-1D
Protocol: as §1, §2

[5] = test system: S100A9-induced inflammatory mediator expression in RAW 264.7 macrophage cell line; assay: qRT-PCR of inflammatory mediator mRNA in RAW 264.7 cells treated with recombinant S100A9; settings: 100 μg/mL DOPG with 2 μg/mL S100A9; 2 h; FIGS. 6A-6D
Protocol: as §1, §2

[6] = test system: NF-κB phosphorylation/activation in RAW264.7 cells; assay: Western analysis of NF-κB phosphorylation/activation in RAW264.7 cells stimulated with Pam3CSK4; settings: co-treatment with 100 μg/mL DOPG; 2.5 μg/mL Pam3CSK4; 10 minutes; FIG. 9
Protocol: Membranes containing transferred proteins were blocked with 5% non-fat dry milk for at least 30 minutes before incubating with the appropriate primary antibodies, overnight, followed by washing and incubating with secondary antibodies for 1 h at room temperature. Immunoreactivity was visualized using infrared imaging on an Odyssey imaging system (LI-COR Biosciences, Lincoln, Nebr.).

[7] = co-treatment with DOPG 100 μg/mL

## CCCCCCCC/C=C\CCCCCCCC(=O)OC[C@H](COP(=O)(O)OCC(O)CO)OC(=O)CCCCCCC/C=C\CCCCCCCC (stereo partly drawn) [DOPG, dioleoylphosphatidylglycerol]
[1]
  HSPB4 induction of inflammatory mediator expression: inhibited
[2]; 100 μg/mL DOPG with 2 μg/mL S100A9, FIG. 8A
  S100A9-induced increase in TNFα protein secretion: inhibited
[2]; 100 μg/mL DOPG with 0.1 or 1 μg/mL HSPB4, FIG. 8B
  HSPB4-induced increase in TNFα protein secretion: inhibited
[3]; DOPG 50 μg/mL
  Pam3CSK4-induced IL1α expression: inhibited
  Pam3CSK4-induced IL1β expression: inhibited
[3]; DOPG 50 or 100 μg/mL
  Pam3CSK4 induction of TNFα: no effect
[3]; [7]
  Pam3CSK4-induced IL1α mRNA level: inhibition
  Pam3CSK4-induced IL1β mRNA level: inhibition
  Pam3CSK4-induced IL6 mRNA level: inhibition
[4]
  Pam3CSK4-induced increase in the expression of all cytokines tested (IL1α, IL1β, IL6, TNFα mRNA): significantly inhibited
[5]
  S100A9-induced increase in inflammatory mediator expression: inhibit
[6]
  Pam3CSK4-increased phosphorylation/activation of NF-κB: inhibited
